Experimental data reported in ChEMBL document CHEMBL3885881, “DrugMatrix”.

Species on record: Rattus norvegicus
Type: toxicity, organism-based, Sprague-Dawley
Conditions: in vivo, sc, 24 h, route mini-PUMP - SUBCUTANEOUS, time 1 day, vehicle 100 % SALINE
[1] = 0 mg/kg, tissue Blood, dose level Control
[2] = 0 mg/kg, tissue Plasma, dose level Control
[3] = […], tissue Blood, dose 0.77 mg/Kg, dose level High
[4] = […], tissue Plasma, dose 0.77 mg/Kg, dose level High

Description: DrugMatrix - Regimen: Single

**Q.** What does the source list for `CNCC(O)c1ccc(O)c(O)c1` (configuration not stated) [RACEPINEPHRINE]?
**A.** ABSOLUTE EOSINOPHIL [1]: 26.17 CELLS/uL; ABSOLUTE LYMPHOCYTE [1]: 10985.83 CELLS/uL; ABSOLUTE MONOCYTE [1]: 234.5 CELLS/uL; ABSOLUTE SEGMENTED NEUTROPHIL [1]: 1753.5 CELLS/uL; BASOPHIL [1]: 0%; EOSINOPHIL [1]: 0.17%; ERYTHROCYTE COUNT [1]: 5.64 x10E6/uL; HEMOGLOBIN [1]: 12.68 G/DL; LEUKOCYTE COUNT [1]: 13 x10E3/uL; LYMPHOCYTE [1]: 84.5%; MEAN CORPUSCULAR HEMOGLOBIN [1]: 22.5 pg; MEAN CORPUSCULAR HEMOGLOBIN CONCENTRATION [1]: 36.78 G/DL; MEAN CORPUSCULAR VOLUME [1]: 61.18 fL; NEUTROPHIL [1]: 13.5%; NUCLEATED RED BLOOD CELLS [1]: 0.17 /100WBC; PLATELET COUNT [1]: 679.17 x10E3/uL; ALANINE AMINOTRANSFERASE [2]: 42.67 u/L; ALBUMIN [2]: 3.77 G/DL; ALKALINE PHOSPHATASE [2]: 291.17 u/L; ASPARTATE AMINOTRANSFERASE [2]: 74.5 u/L; BLOOD UREA NITROGEN [2]: 15.33 mg/dL; CARBON DIOXIDE [2]: 30 mmol/L; CHLORIDE [2]: 100.83 MEQ/L; CHOLESTEROL [2]: 65.33 mg/dL; CREATININE [2]: 0.15 mg/dL; LACTATE DEHYDROGENASE [2]: 162.67 u/L; LIPASE [2]: 8.5 u/L; PHOSPHORUS [2]: 12.2 mg/dL; POTASSIUM [2]: 5.73 MEQ/L; SODIUM [2]: 144.7 MEQ/L; TOTAL BILIRUBIN [2]: 0.15 mg/dL; TOTAL PROTEIN [2]: 5.87 G/DL; URIC ACID [2]: 1.93 mg/dL; ABSOLUTE EOSINOPHIL [3]: 58.33 CELLS/uL; ABSOLUTE LYMPHOCYTE [3]: 10774 CELLS/uL; ABSOLUTE MONOCYTE [3]: 283.33 CELLS/uL; ABSOLUTE SEGMENTED NEUTROPHIL [3]: 3051 CELLS/uL; BASOPHIL [3]: 0%; ERYTHROCYTE COUNT [3]: 5.86 x10E6/uL; HEMOGLOBIN [3]: 12.93 G/DL; LEUKOCYTE COUNT [3]: 14.17 x10E3/uL; LYMPHOCYTE [3]: 76.33%; MEAN CORPUSCULAR HEMOGLOBIN [3]: 22.1 pg; MEAN CORPUSCULAR HEMOGLOBIN CONCENTRATION [3]: 36.47 G/DL; MEAN CORPUSCULAR VOLUME [3]: 60.53 fL; NEUTROPHIL [3]: 21.33%; NUCLEATED RED BLOOD CELLS [3]: 0.67 /100WBC; PLATELET COUNT [3]: 983 x10E3/uL; ALBUMIN [4]: 4.03 G/DL; ALKALINE PHOSPHATASE [4]: 374 u/L; BLOOD UREA NITROGEN [4]: 11.67 mg/dL; CHLORIDE [4]: 100.33 MEQ/L; CHOLESTEROL [4]: 88.67 mg/dL; CREATININE [4]: 0.15 mg/dL; GLUCOSE [4]: 283.33 mg/dL; LACTATE DEHYDROGENASE [4]: 103.67 u/L; LIPASE [4]: 9 u/L; PHOSPHORUS [4]: 15.53 mg/dL; POTASSIUM [4]: 5.99 MEQ/L; SODIUM [4]: 145.87 MEQ/L; TOTAL BILIRUBIN [4]: 0.13 mg/dL; URIC ACID [4]: 3.3 mg/dL
